Experiment [1] concerns cpHaloΔ. Details: method as in 2 sources, one per row (each row's own in cited_ref): ref 4 (Huppertz et al., Science 2024) ||| ref PhD thesis of Jonas Wilhelm. The following applies: CA-TMR labeling kinetics, TEVp-cleaved cpHalo∆; 500 nM cpHaloΔ protein, 100 nM CA-TMR (EC50 >1 μM); ref 4 (Huppertz et al., Science 2024); read-out: EC50 for the parental cpHalo∆; cited from earlier work.

The target of experiment [2] is cpHaloΔ3-SiR. The experiment is described as follows: Bio-layer interferometry binding kinetics, biotin-Hpep with cpHaloΔ3-SiR. Conditions: BLI, 25 °C, 1:1 global fit; for Kd: biotin-Hpep 50 nM immobilised, cpHalo∆3-SiR 300–2 nM; for koff / kon: biotin-Hpep, cpHalo∆3-SiR. As for the experimental part:
(§1) After incubation, Hpep1 was removed by IMAC purification on a gravity flow column and buffer was exchanged to activity buffer using Amicon Ultra-15 Centrifugal Filter Unit. The protein labeling was verified by SDS-PAGE, comparing Coomassie blue staining and in-gel fluorescence (Supplementary Fig. 19). Protein labeling and Hpep1 removal were further verified by HRMS as previously explained.
(§2) Bio-layer interferometry (BLI) analysis was performed in a 96-well plate using an Octet® R4 system (Sartorius) with an acquisition rate for standard kinetics of 5.0 Hz at 25 °C. […] The raw data was analyzed using Octet® Analysis Studio (Sartorius). For data correction, response curves were baseline-aligned by subtracting the average signal of the baseline step and Savitzky–Golay filtering was used to remove high-frequency noise from the data.
Background: Biolayer interferometry detects binding as a change in optical thickness at a sensor tip.

Experiment [3] addresses cpHaloΔ3-TMR. Put plainly: Bio-layer interferometry binding kinetics, biotin-Hpep with cpHaloΔ3-TMR. Conditions: BLI, 25 °C, 1:1 global fit; for Kd: biotin-Hpep 50 nM immobilised, cpHalo∆3-TMR 300–2 nM; for koff / kon: biotin-Hpep, cpHalo∆3-TMR. As for the experimental part: as §1, §2

Residues, ends and D or L forms follow the SMILES beside them. *: point of attachment. Biotin = O=C1N[C@H]2[C@H](CS[C@H]2CCCCC(=O)*)N1

cpHaloΔ, sequence (P0A3G2 4-141 L47V/S58T/D78G/Y87F/L88M/C128F): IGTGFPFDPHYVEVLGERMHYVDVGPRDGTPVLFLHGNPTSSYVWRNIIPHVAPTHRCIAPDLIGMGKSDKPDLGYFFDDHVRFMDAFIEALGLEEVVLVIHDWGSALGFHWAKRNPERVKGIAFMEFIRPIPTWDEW
cpHaloΔ, sequence (P0A3G2 156-290 E160K/A167V/A172T/K175M/C176G/K195N/A224E/N227D/E257K/T264A/H272N/Y273L): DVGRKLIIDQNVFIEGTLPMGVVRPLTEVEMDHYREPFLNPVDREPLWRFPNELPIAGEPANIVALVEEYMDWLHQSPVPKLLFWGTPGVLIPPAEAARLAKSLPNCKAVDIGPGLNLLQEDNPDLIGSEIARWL

Turning to “WREEVRKAFKLFRQ [Hpep5, previously reported split-HaloTag peptide, […]]”, the EC50 (commonly the concentration at which the effect is half-maximal) in experiment [1] is 10.7 µM.
Take “SKRDAREMFQAFRT [Hpep3, previously reported split-HaloTag peptide, […]]”: in experiment [1], the 50% effective concentration (EC50) is 149 µM.
For the compound “AREMFQAFRT [Hpep2, previously reported split-HaloTag peptide, […]]”, in experiment [1], the concentration for a half-maximal effect (EC50) was 1120 µM.
`CSCC[C@H](NC(=O)[C@H](CCC(=O)O)NC(=O)[C@H](CCCNC(=N)N)NC(=O)[C@H](Cc1c[nH]c2ccccc12)NC(=O)[C@H](CC(=O)O)NC(=O)[C@H](CCCNC(=N)N)NC(=O)[C@H](CCCCN)NC(=O)[C@H](CO)NC(=O)CCCC[C@@H]1SC[C@@H]2NC(=O)N[C@@H]21)C(=O)N[C@@H](Cc1ccccc1)C(=O)N[C@@H](CCCNC(=N)N)C(=O)N[C@@H](CC(C)C)C(=O)N[C@@H](Cc1ccccc1)C(=O)N[C@@H](CCCNC(=N)N)C(=O)N[C@H](C(=O)O)[C@@H](C)O` [biotin-Hpep11] (Biotin-SKRDWREMFRLFRT-OH): in experiment [2], the dissociation constant Kd – broadly, the free concentration of one partner at which half of the binding sites on the other are occupied at equilibrium, for simple one-to-one binding – turned out to be 0.00427 µM; the koff – broadly, the first-order rate constant of dissociation – came to 0.000214 s⁻¹; the kon (usually the second-order rate constant of association) came to 50000 M⁻¹ s⁻¹. In experiment [3], binding was characterised by a dissociation constant (Kd) of 0.0106 µM, the koff was 0.000687 s⁻¹ and the association rate constant (kon) was 64900 M⁻¹ s⁻¹.
Consider `CSCC[C@H](NC(=O)[C@H](CCC(=O)O)NC(=O)[C@H](CCCNC(=N)N)NC(=O)[C@H](Cc1c[nH]c2ccccc12)NC(=O)[C@H](CO)NC(=O)[C@H](Cc1c[nH]c2ccccc12)NC(=O)CNC(=O)[C@H](CCCNC(=N)N)NC(=O)CCCC[C@@H]1SC[C@@H]2NC(=O)N[C@@H]21)C(=O)N[C@@H](Cc1ccccc1)C(=O)N[C@@H](CCCNC(=N)N)C(=O)N[C@@H](CC(C)C)C(=O)N[C@@H](Cc1ccccc1)C(=O)N[C@@H](CCCNC(=N)N)C(=O)N[C@H](C(=O)O)[C@@H](C)O` [biotin-Hpep9] (Biotin-RGWSWREMFRLFRT-OH), for which, in experiment [2], the dissociation constant Kd came out at 0.0188 µM, the koff came to 0.00149 s⁻¹ and the kon is 78900 M⁻¹ s⁻¹. Moreover, in experiment [3], the Kd stood at 0.00486 µM, the koff was 0.00104 s⁻¹ and the on-rate (kon) is 214000 M⁻¹ s⁻¹.
In the case of “WKEEVIKAFKLFRD [Hpep4, previously reported split-HaloTag peptide, […]]”, the 50% effective concentration (EC50) in experiment [1] was 21 µM.
Take “WRETFQLFRT [Hpep6, previously reported split-HaloTag peptide, […]]”: in experiment [1], the EC50 is 2.39 µM.
Take “ARETFQAFRT [Hpep1, previously reported split-HaloTag peptide, […]]”: the EC50 in experiment [1] was 2980 µM.
